Source: ChEMBL document CHEMBL4339203, “Structural requirements of cholenamide derivatives as the LXR ligands” (Bioorg Med Chem Lett, 2019)
The source made the active and inactive calls. The calls are words filed in the database; no cut-off is given here.

How the values were obtained:
[1] = target: T1, Oxysterols receptor LXR-beta (Rattus norvegicus, UniProt Q62755); experiment: Transactivation of rat LXRbeta expressed in HEK293FT cells measured after 14 to 18 hrs by dual-luciferase reporter gene assay; type: cell-based
T1 sequence (Q62755 whole entry): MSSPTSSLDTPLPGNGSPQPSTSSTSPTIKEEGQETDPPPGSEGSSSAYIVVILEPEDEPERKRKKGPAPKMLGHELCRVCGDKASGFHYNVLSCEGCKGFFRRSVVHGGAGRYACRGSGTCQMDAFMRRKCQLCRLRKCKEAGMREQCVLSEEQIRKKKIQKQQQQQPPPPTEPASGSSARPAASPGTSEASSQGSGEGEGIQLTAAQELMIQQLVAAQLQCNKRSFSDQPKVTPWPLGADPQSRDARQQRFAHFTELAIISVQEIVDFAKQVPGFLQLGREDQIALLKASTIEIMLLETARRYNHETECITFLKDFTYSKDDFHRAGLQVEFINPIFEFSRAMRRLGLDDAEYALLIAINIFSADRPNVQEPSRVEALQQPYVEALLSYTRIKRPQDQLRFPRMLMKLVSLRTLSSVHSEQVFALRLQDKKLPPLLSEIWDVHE

[2] = target: T2, Oxysterols receptor LXR-beta (Rattus norvegicus) (UniProt Q62755); experiment: Transactivation of rat LXRbeta expressed in HEK293FT cells co-expressing RXR at 5 uM measured after 14 to 18 hrs by dual-luciferase reporter gene assay; type: cell-based
T2 sequence (whole entry): T1 sequence (Q62755 whole entry)

[3] = target: T3, Oxysterols receptor LXR-alpha (Rattus norvegicus, UniProt Q62685); experiment: Transactivation of rat LXRalpha expressed in HEK293FT cells co-expressing RXR at 5 uM measured after 14 to 18 hrs by dual-luciferase reporter gene assay; type: cell-based
T3 sequence (Q62685 whole entry): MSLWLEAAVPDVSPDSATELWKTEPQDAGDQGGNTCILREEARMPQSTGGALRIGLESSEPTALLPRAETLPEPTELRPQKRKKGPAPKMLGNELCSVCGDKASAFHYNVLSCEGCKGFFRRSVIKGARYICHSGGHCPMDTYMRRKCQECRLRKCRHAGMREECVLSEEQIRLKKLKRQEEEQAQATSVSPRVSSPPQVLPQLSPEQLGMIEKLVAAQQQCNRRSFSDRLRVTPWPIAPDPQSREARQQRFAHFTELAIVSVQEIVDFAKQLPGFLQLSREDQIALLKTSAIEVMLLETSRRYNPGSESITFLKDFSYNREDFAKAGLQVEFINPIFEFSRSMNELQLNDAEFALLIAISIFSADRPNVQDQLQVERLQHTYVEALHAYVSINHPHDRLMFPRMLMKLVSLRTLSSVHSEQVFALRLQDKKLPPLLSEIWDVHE

[4] = target: T2, Oxysterols receptor LXR-beta (Rattus norvegicus); experiment: Transactivation of rat LXRbeta expressed in HEK293FT cells measured after 14 to 18 hrs by dual-luciferase reporter gene assay relative to T0901317; type: cell-based
[5] = target: T2, Oxysterols receptor LXR-beta (Rattus norvegicus); experiment: Transactivation of rat LXRbeta expressed in HEK293FT cells at 5 uM measured after 14 to 18 hrs by dual-luciferase reporter gene assay; type: cell-based
[6] = Ratio of compound effect for transactivation of rat LXRalpha expressed in HEK293FT cells to compound effect for transactivation of rat LXRbeta expressed in HEK293FT cells

Structure (SMILES) | EC50 ([1]; read-out: EC50) [nM] | Efficacy [4] [%] | Activity [5] | also measured
C[C@H](C[C@H]1CCCN(C)C1=O)[C@H]1CC[C@H]2[C@@H]3CC=C4C[C@@H](O)CC[C@]4(C)[C@H]3CC[C@]12C | 239 | – | – | –
CCCN(C)C(=O)CC[C@@H](C)[C@H]1CC[C@H]2[C@@H]3CC=C4C[C@@H](O)CC[C@]4(C)[C@H]3CC[C@]12C | 1020 | 102 | – | Activity [2]: Active; Activity [3]: Active
C[C@H](C[C@@H]1CCCCN(C)C1=O)[C@H]1CC[C@H]2[C@@H]3CC=C4C[C@@H](O)CC[C@]4(C)[C@H]3CC[C@]12C | 462 | 80 | – | –
CCN1CCC[C@@H](C[C@@H](C)[C@H]2CC[C@H]3[C@@H]4CC=C5C[C@@H](O)CC[C@]5(C)[C@H]4CC[C@]23C)C1=O | 643 | 62 | – | –
O=S(=O)(c1ccccc1)N(CC(F)(F)F)c1ccc(C(O)(C(F)(F)F)C(F)(F)F)cc1 | – | 98 | – | –
CCN(C)C(=O)C(C)C[C@@H](C)[C@H]1CC[C@H]2[C@@H]3CC=C4C[C@@H](O)CC[C@]4(C)[C@H]3CC[C@]12C (stereo in doubt; 11) [listing 1 of 2 here] | 1990 | – | – | –
C[C@H](C[C@H]1CCN(C)C1=O)[C@H]1CC[C@H]2[C@@H]3CC=C4C[C@@H](O)CC[C@]4(C)[C@H]3CC[C@]12C | 1290 | – | – | –
CCN(C)C(=O)C(C)C[C@@H](C)[C@H]1CC[C@H]2[C@@H]3CC=C4C[C@@H](O)CC[C@]4(C)[C@H]3CC[C@]12C (stereo in doubt; 10) [listing 1 of 2 here] | – | 39 | – | –
CCN(C)C(=O)C(C)C[C@@H](C)[C@H]1CC[C@H]2[C@@H]3CC=C4C[C@@H](O)CC[C@]4(C)[C@H]3CC[C@]12C (stereo in doubt; 11) [listing 2 of 2 here] | – | 65 | – | –
C[C@H](CCC(=O)N1CCCC1)[C@H]1CC[C@H]2[C@@H]3CC=C4C[C@@H](O)CC[C@]4(C)[C@H]3CC[C@]12C | 165 | 99 | Active | –
CCN(C)C(=O)C(C)C[C@@H](C)[C@H]1CC[C@H]2[C@@H]3CC=C4C[C@@H](O)CC[C@]4(C)[C@H]3CC[C@]12C (stereo in doubt; 10) [listing 2 of 2 here] | 3900 | – | – | –
CC(C)N(C(=O)CC[C@@H](C)[C@H]1CC[C@H]2[C@@H]3CC=C4C[C@@H](O)CC[C@]4(C)[C@H]3CC[C@]12C)C(C)C | 1110 | 148 | Active | Ratio [6]: 2; Activity [2]: Active; Activity [3]: Active
C[C@H](CCC(=O)N1CCCCC1)[C@H]1CC[C@H]2[C@@H]3CC=C4C[C@@H](O)CC[C@]4(C)[C@H]3CC[C@]12C | 127 | 134 | Active | –
C[C@H](C[C@@H]1CCCN(C)C1=O)[C@H]1CC[C@H]2[C@@H]3CC=C4C[C@@H](O)CC[C@]4(C)[C@H]3CC[C@]12C | – | – | – | EC50 [1]: Not Active
CCN(C)C(=O)CC[C@@H](C)[C@H]1CC[C@H]2[C@@H]3CC=C4C[C@@H](O)CC[C@]4(C)[C@H]3CC[C@]12C | 786 | 108 | – | Activity [2]: Active; Activity [3]: Active
C[C@H](CCC(=O)N(C)C)[C@H]1CC[C@H]2[C@@H]3CC=C4C[C@@H](O)CC[C@]4(C)[C@H]3CC[C@]12C | 124 to 464 | 100 | Active | –
CC(C)N(C)C(=O)CC[C@@H](C)[C@H]1CC[C@H]2[C@@H]3CC=C4C[C@@H](O)CC[C@]4(C)[C@H]3CC[C@]12C | 623 | 109 | – | Activity [2]: Active; Activity [3]: Active
C[C@H](C[C@@H]1CCN(C)C1=O)[C@H]1CC[C@H]2[C@@H]3CC=C4C[C@@H](O)CC[C@]4(C)[C@H]3CC[C@]12C | – | – | – | EC50 [1]: Not Active
CCN(CC)C(=O)CC[C@@H](C)[C@H]1CC[C@H]2[C@@H]3CC=C4C[C@@H](O)CC[C@]4(C)[C@H]3CC[C@]12C | 344 | 211 | Active | Activity [2]: Active; Activity [3]: Active
CC(C)NC(=O)CC[C@@H](C)[C@H]1CC[C@H]2[C@@H]3CC=C4C[C@@H](O)CC[C@]4(C)[C@H]3CC[C@]12C | 862 | 85 | Active | –
